One may read the Kd as the concentration at which binding is half-saturated. Higher therefore signals lower affinity.

The text below walks through data of BindingDB's records for patent US20240317732 (Department of Health And Human Service, 2024).

This test deals with Proteasomal ubiquitin receptor ADRM1 (Homo sapiens, UniProt Q16186). The experiment in a line: Isothermal Titration Calorimetry Experiments. The protocol: ITC experiments were performed at 25° C. on a MicroCal iTC200 system (Malvern, PA, USA). hRpn13 Pru, XL5, XL5 derivative, or RA190 were prepared in buffer C. One aliquot of 0.5 μL followed by 17 or 18 aliquots of 2.1 μL of 200 μM hRpn13 Pru was injected at 750 r.p.m. into a calorimeter cell (volume […]) that contained 20 μM XL5, XL5 derivative, or RA190. Blank experiments were performed by replacing XL5, XL5 derivative, or RA190 with buffer in the cell and the resulting data subtracted from the experimental data during analyses. The integrated interaction heat values were normalized as a function of protein concentration and the data were fit with MicroCal Origin 7.0-based software implementing the One Set of Sites model to yield binding affinity Ka (1/Kd), stoichiometry, and other thermodynamic parameters.
Proteasomal ubiquitin receptor ADRM1, sequence (Q16186 whole entry): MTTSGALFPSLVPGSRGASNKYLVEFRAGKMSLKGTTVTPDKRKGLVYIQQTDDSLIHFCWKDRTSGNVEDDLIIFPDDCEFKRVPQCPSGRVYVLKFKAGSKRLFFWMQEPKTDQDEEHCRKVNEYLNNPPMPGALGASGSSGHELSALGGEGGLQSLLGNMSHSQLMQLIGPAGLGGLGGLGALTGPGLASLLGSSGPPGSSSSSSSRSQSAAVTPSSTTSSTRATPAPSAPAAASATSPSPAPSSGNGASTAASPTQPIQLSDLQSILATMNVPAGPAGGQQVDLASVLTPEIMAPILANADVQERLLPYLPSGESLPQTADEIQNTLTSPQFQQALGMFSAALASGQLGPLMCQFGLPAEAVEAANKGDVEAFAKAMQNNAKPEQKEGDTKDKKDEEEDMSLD
On the technique in general: Isothermal titration calorimetry measures the heat released or taken up as one component is titrated into another.
In the case of `N#C/C(=C\c1cccc(NC(=O)c2ccccc2Cl)c1)C(=O)Nc1ccccc1C(=O)O` [US20240317732, Compound XL23], the Kd was found to be 3.88 µM.

As for `N#CC(=Cc1cccc(NC(=O)c2ccc(NCC(=O)O)cc2)c1)C(=O)Nc1ccccc1C(=O)O` [US20240317732, Compound XL25], the Kd worked out at 4.12 µM.

For the compound `Cc1ccc(C(=O)Nc2cccc(C=C(C#N)C(=O)Nc3ccccc3C(=O)O)c2)nc1O` [US20240317732, Compound XL27], the affinity, expressed as Kd, was 3.94 µM.

In turn, `COc1ccc(NC(=O)/C(C#N)=C/c2cccc(NC(=O)c3ccc(C)cc3)c2)c(C(=O)O)c1` [US20240317732, Compound XL28] came in with a Kd of 3.82 µM.

Take `CNc1ccc(NC(=O)/C(C#N)=C/c2cccc(NC(=O)c3ccc(C)cc3)c2)c(C(=O)O)c1` [US20240317732, Compound XL29]: binding was characterised by a dissociation constant (Kd) of 7.81 µM.

Compound `Cc1ccc(C(=O)Nc2cccc(C=C(C#N)C(=O)Nc3cccc(C(F)(F)F)c3C(=O)O)c2)cc1` [US20240317732, Compound XL30] came in with a Kd of 12.4 µM.
